Measured values from patent US8288385B2, “6-(3-aza-bicyclo[3.1.0]hex-3-yl)-2-phenyl-pyrimidines” (Actelion Pharmaceuticals Ltd., priority 2009, dated 2012).

Biological target: T1, human P2Y12 receptor (Homo sapiens, UniProt Q9H244)
T1 construct: expressed in transfected cells; host or cells: Chinese Hamster Ovary (CHO) cells
Test: P2Y12 receptor binding assay
Details: CHO cells with recombinant expression of the human P2Y12 receptor; tritium-labeled 2-methyl-S-ADP; RT, 2 hours
Method: P2Y12 Receptor Binding Assay
Chinese Hamster Ovary (CHO) cells with recombinant expression of the human P2Y12 receptor were cultured in 24 well cell-culture plates. Cells were washed three times with binding buffer (50 mM Tris pH 7.4, 100 mM NaCl, 1 mM EDTA, 0.5% BSA). The cells were then incubated with 0.5 ml per well binding buffer containing tritium-labeled 2-methyl-thio-adenosine 5′-diphosphate (2-methyl-S-ADP) (between 100,000 and 300,000 dpm per well) and various concentrations of test compounds. After incubation at RT for 2 hours, cells were washed three times with binding buffer. Then, cells were solubilized by addition of 0.5 ml solubilization buffer (SDS, NaOH, EDTA). The content of each well was then transferred into beta-counter vials and 2.0 ml of Ultima Gold Scintillation liquid was added.

T1 sequence (Q9H244 whole entry): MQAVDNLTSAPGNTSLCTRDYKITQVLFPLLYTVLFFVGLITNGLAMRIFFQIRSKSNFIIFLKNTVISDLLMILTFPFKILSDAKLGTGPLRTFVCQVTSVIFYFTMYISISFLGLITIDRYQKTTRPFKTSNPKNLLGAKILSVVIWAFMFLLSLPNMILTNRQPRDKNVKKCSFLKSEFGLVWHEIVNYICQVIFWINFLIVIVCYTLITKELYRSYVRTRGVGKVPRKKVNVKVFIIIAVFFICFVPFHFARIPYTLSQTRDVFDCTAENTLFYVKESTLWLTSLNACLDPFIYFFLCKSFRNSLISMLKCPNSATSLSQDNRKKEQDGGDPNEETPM

| Compound | IC50 |
| --- | --- |
| CCCCOC(=O)N1CCN(C(=O)[C@H](CCC(=O)O)NC(=O)c2cc(N3C[C@@H]4[C@H](C3)[C@H]4C(=O)O)nc(-c3ccccc3)n2)CC1 [Example 1, (1α,5α,6α)-3-{6-[(S)-1-(4-Butoxycarbonyl-piperazine-1-carbonyl)-3-carboxy-propylcarbamoyl]-2-phenyl-pyrimidin-4-yl}-3-aza-bicyclo[3.1.0]hexane-6-carboxylic acid] | 10 nM |
| CCCCOC(=O)N1CCN(C(=O)[C@H](CCC(=O)O)NC(=O)c2cc(N3C[C@@H]4[C@H](C3)[C@@H]4C(=O)O)nc(-c3ccccc3)n2)CC1 [Example 2, (1α,5α,6β)-3-{6-[(S)-1-(4-Butoxycarbonyl-piperazine-1-carbonyl)-3-carboxy-propylcarbamoyl]-2-phenyl-pyrimidin-4-yl}-3-aza-bicyclo[3.1.0]hexane-6-carboxylic acid] | 3.7 nM |
| CCCCOC(=O)N1CCN(C(=O)[C@H](CCC(=O)O)NC(=O)c2cc(N3C[C@@H]4[C@H](C3)[C@H]4C(=O)OCC)nc(-c3ccccc3)n2)CC1 [Example 3, (1α,5α,6α)-3-{6-[(S)-1-(4-Butoxycarbonyl-piperazine-1-carbonyl)-3-carboxy-propylcarbamoyl]-2-phenyl-pyrimidin-4-yl}-3-aza-bicyclo[3.1.0]hexane-6-carboxylic acid ethyl ester] | 8.7 nM |
| CCCCOC(=O)N1CCN(C(=O)[C@H](CCC(=O)O)NC(=O)c2cc(N3C[C@@H]4[C@H](C3)[C@@H]4C(=O)OCC)nc(-c3ccccc3)n2)CC1 [Example 4, (1α,5α,6β)-3-{6-[(S)-1-(4-Butoxycarbonyl-piperazine-1-carbonyl)-3-carboxy-propylcarbamoyl]-2-phenyl-pyrimidin-4-yl}-3-aza-bicyclo[3.1.0]hexane-6-carboxylic acid ethyl ester] | 15 nM |
| CCCCOC(=O)N1CCN(C(=O)[C@H](CCC(=O)O)NC(=O)c2cc(N3C[C@@H]4[C@H](C3)[C@H]4NC(=O)OC(C)(C)C)nc(-c3ccccc3)n2)CC1 [Example 5, 4-((S)-2-{[6-((1α,5α,6α)-6-tert-Butoxycarbonylamino-3-aza-bicyclo[3.1.0]hex-3-yl)-2-phenyl-pyrimidine-4-carbonyl]amino}-4-carboxy-butyryl)-piperazine-1-carboxylic acid butyl ester] | 6.2 nM |
| CCCCOC(=O)N1CCN(C(=O)[C@H](CCC(=O)O)NC(=O)c2cc(N3C[C@@H]4[C@H](C3)[C@@H]4NC(=O)OC(C)(C)C)nc(-c3ccccc3)n2)CC1 [Example 6, 4-((S)-2-{[6-((1α,5α,6β)-6-tert-Butoxycarbonylamino-3-aza-bicyclo[3.1.0]hex-3-yl)-2-phenyl-pyrimidine-4-carbonyl]-amino}-4-carboxy-butyryl)-piperazine-1-carboxylic acid butyl ester] | 7.3 nM |
| CCCCOC(=O)N1CCN(C(=O)[C@H](CCC(=O)O)NC(=O)c2cc(N3C[C@@H]4[C@@H](N)[C@@H]4C3)nc(-c3ccccc3)n2)CC1 [Example 7] | 7.5 nM |
| CCCCOC(=O)N1CCN(C(=O)[C@H](CCC(=O)O)NC(=O)c2cc(N3C[C@@H]4[C@H](N)[C@@H]4C3)nc(-c3ccccc3)n2)CC1 [Example 8, 4-((S)-2-{[6-((1α,5α,6β)-6-Amino-3-aza-bicyclo[3.1.0]hex-3-yl)-2-phenyl-pyrimidine-4-carbonyl]-amino}-4-carboxy-butyryl)-piperazine-1-carboxylic acid butyl ester] | 7 nM |
| CCCCOC(=O)N1CCN(C(=O)[C@H](CCC(=O)O)NC(=O)c2cc(N3C[C@@H]4[C@@H](CO)[C@@H]4C3)nc(-c3ccccc3)n2)CC1 [Example 9, 4-((S)-4-Carboxy-2-{[6-((1α,5α,6α)-6-hydroxymethyl-3-aza-bicyclo[3.1.0]hex-3-yl)-2-phenyl-pyrimidine-4-carbonyl]-amino}-butyryl)-piperazine-1-carboxylic acid butyl ester] | 8 nM |
| CCCCOC(=O)N1CCN(C(=O)[C@H](CCC(=O)O)NC(=O)c2cc(N3C[C@@H]4[C@@H](COC)[C@@H]4C3)nc(-c3ccccc3)n2)CC1 [Example 10, 4-((S)-4-Carboxy-2-{[6-((1α,5α,6α)-6-methoxymethyl-3-aza-bicyclo[3.1.0]hex-3-yl)-2-phenyl-pyrimidine-4-carbonyl]-amino}-butyryl)-piperazine-1-carboxylic acid butyl ester] | 6.6 nM |
| CCCCOC(=O)N1CCN(C(=O)[C@@H](NC(=O)c2cc(N3C[C@@H]4[C@H](C3)[C@@H]4C(=O)O)nc(-c3ccccc3)n2)C(C)C)CC1 [Example 11, (1α,5α,6β)-3-{6-[(S)-1-(4-Butoxycarbonyl-piperazine-1-carbonyl)-2-methyl-propylcarbamoyl]-2-phenyl-pyrimidin-4-yl}-3-aza-bicyclo[3.1.0]hexane-6-carboxylic acid] | 14 nM |
| CCCCOC(=O)N1CCN(C(=O)[C@@H](NC(=O)c2cc(N3C[C@@H]4[C@H](C3)[C@H]4C(=O)O)nc(-c3ccccc3)n2)C(C)C)CC1 [Example 12, (1α,5α,6α)-3-{6-[(S)-1-(4-Butoxycarbonyl-piperazine-1-carbonyl)-2-methyl-propylcarbamoyl]-2-phenyl-pyrimidin-4-yl}-3-aza-bicyclo[3.1.0]hexane-6-carboxylic acid] | 70 nM |
| CCOC(=O)N1CCN(C(=O)C(NC(=O)c2cc(N3CC4C(C3)C4C(=O)O)nc(-c3ccccc3)n2)C(C)C)CC1 [Example 13, (1α,5α,6β)-3-{6-[(S)-1-(4-Ethoxycarbonyl-piperazine-1-carbonyl)-2-methyl-propylcarbamoyl]-2-phenyl-pyrimidin-4-yl}-3-aza-bicyclo[3.1.0]hexane-6-carboxylic acid] | 96 nM |
| CCCOC(=O)N1CCN(C(=O)[C@@H](NC(=O)c2cc(N3C[C@@H]4[C@H](C3)[C@@H]4C(=O)O)nc(-c3ccccc3)n2)C(C)C)CC1 [Example 14, (1α,5α,6β)-3-{6-[(S)-2-Methyl-1-(4-propoxycarbonyl-piperazine-1-carbonyl)-propylcarbamoyl]-2-phenyl-pyrimidin-4-yl}-3-aza-bicyclo[3.1.0]hexane-6-carboxylic acid] | 60 nM |
| CCCCCOC(=O)N1CCN(C(=O)[C@@H](NC(=O)c2cc(N3C[C@@H]4[C@H](C3)[C@@H]4C(=O)O)nc(-c3ccccc3)n2)C(C)C)CC1 [Example 15, (1α,5α,6β)-3-{6-[(S)-2-Methyl-1-(4-pentyloxycarbonyl-piperazine-1-carbonyl)-propylcarbamoyl]-2-phenyl-pyrimidin-4-yl}-3-aza-bicyclo[3.1.0]hexane-6-carboxylic acid] | 15 nM |
| CCCCCCOC(=O)N1CCN(C(=O)[C@@H](NC(=O)c2cc(N3C[C@@H]4[C@H](C3)[C@@H]4C(=O)O)nc(-c3ccccc3)n2)C(C)C)CC1 [Example 16, (1α,5α,6β)-3-{6-[(S)-1-(4-Hexyloxycarbonyl-piperazine-1-carbonyl)-2-methyl-propylcarbamoyl]-2-phenyl-pyrimidin-4-yl}-3-aza-bicyclo[3.1.0]hexane-6-carboxylic acid] | 34 nM |
| CCCCOC(=O)N1CCN(C(=O)[C@@H](NC(=O)c2cc(N3C[C@@H]4[C@H](C3)[C@H]4C(N)=O)nc(-c3ccccc3)n2)C(C)C)CC1 [Example 17, 4-((S)-2-{[6-((1α,5α,6α)-6-Carbamoyl-3-aza-bicyclo[3.1.0]hex-3-yl)-2-phenyl-pyrimidine-4-carbonyl]-amino}-3-methyl-butyryl)-piperazine-1-carboxylic acid butyl ester] | 13 nM |
| CCCCOC(=O)N1CCN(C(=O)[C@@H](NC(=O)c2cc(N3C[C@@H]4[C@@H](C#N)[C@@H]4C3)nc(-c3ccccc3)n2)C(C)C)CC1 [Example 18, 4-((S)-2-{[6-((1α,5α,6α)-6-Cyano-3-aza-bicyclo[3.1.0]hex-3-yl)-2-phenyl-pyrimidine-4-carbonyl]-amino}-3-methyl-butyryl)-piperazine-1-carboxylic acid butyl ester] | 75 nM |
| CCCCOC(=O)N1CCN(C(=O)[C@@H](NC(=O)c2cc(N3C[C@@H]4[C@H](C3)[C@H]4c3nnn[nH]3)nc(-c3ccccc3)n2)C(C)C)CC1 [Example 19] | 12 nM |
| CCCCOC(=O)N1CCN(C(=O)[C@@H](NC(=O)c2cc(N3C[C@@H]4[C@H](C3)[C@@H]4C(N)=O)nc(-c3ccccc3)n2)C(C)C)CC1 [Example 20, 4-((S)-2-{[6-((1α,5α,6β)-6-Carbamoyl-3-aza-bicyclo[3.1.0]hex-3-yl)-2-phenyl-pyrimidine-4-carbonyl]-amino}-3-methyl-butyryl)-piperazine-1-carboxylic acid butyl ester] | 20 nM |
| CCCCOC(=O)N1CCN(C(=O)[C@@H](NC(=O)c2cc(N3C[C@@H]4[C@H](C#N)[C@@H]4C3)nc(-c3ccccc3)n2)C(C)C)CC1 [Example 21, 4-((S)-2-{[6-((1α,5α,6β)-6-Cyano-3-aza-bicyclo[3.1.0]hex-3-yl)-2-phenyl-pyrimidine-4-carbonyl]-amino}-3-methyl-butyryl)-piperazine-1-carboxylic acid butyl ester] | 10 nM |
| CCCCOC(=O)N1CCN(C(=O)[C@@H](NC(=O)c2cc(N3C[C@@H]4[C@H](C3)[C@@H]4c3nnn[nH]3)nc(-c3ccccc3)n2)C(C)C)CC1 [Example 22] | 38 nM |
| CCCCOC(=O)N1CCN(C(=O)[C@@H](NC(=O)c2cc(N3C[C@@H]4[C@H](N)[C@@H]4C3)nc(-c3ccccc3)n2)C(C)C)CC1 [Example 23, 4-((S)-2-{[6-((1α,5α,6β)-6-Amino-3-aza-bicyclo[3.1.0]hex-3-yl)-2-phenyl-pyrimidine-4-carbonyl]-amino}-3-methyl-butyryl)-piperazine-1-carboxylic acid butyl ester] | 266 nM |
